Data on five compounds can be found in patent publication US5585360A, “Peptide compounds derived from boronic acid” (Adir et Compagnie, priority 1994, dated 1996).

For data set [1], the system named is thrombin time (TT), plasma. The data set can be described thus: Anticoagulant activity, thrombin time (TT) in human plasma. The format is biochemical, man. The settings on record: human platelet-depleted plasma, 2 min at 37° C. As for the experimental part:
(§1) In the presence of a standard quantity of thrombin or of calcium thromboplastin a normal plasma coagulates in a defined and constant time, called thrombin time (TT) and prothrombin time (PT) respectively. Venous blood is collected at the elbow bend into a trisodium citrate (0.109M) solution. A plasma depleted in platelets is obtained by centrifuging the blood samples (3000 g, 15 minutes). The thrombin time is obtained with the Thrombin Prest (Stago) reagent and the prothrombin time with the Neoplastine (Stago) reagent. They are determined automatically by employing an ST4 (Stago) coagulometer. […] In these conditions the TT obtained in the control plasma is of the order of 20 seconds in man, and PT of the order of 12 seconds. The activity of an inhibitor is evaluated by its ability to lengthen these times when compared with the control. In these conditions the compounds of the invention permit a lengthening of the thrombin time and of the prothrombin time of 50-fold and more. The effect of the inhibitors is measured and the concentration which doubles the coagulation time (CTT2 for the thrombin time and CPT2 for the prothrombin time) is determined.

Data set [2] has as its system prothrombin time (PT), plasma. Put plainly: Anticoagulant activity, prothrombin time (PT) in human plasma. The format is biochemical, man. The settings on record: human platelet-depleted plasma, 2 min at 37° C., calcium thromboplastin. As for the experimental part:
as §1

In the next data set the target is T1, human thrombin (Homo sapiens, UniProt P00734).
T1 construct: human thrombin (Sigma, specific activity 3220 NIHU/mg); purchased Sigma
Put plainly: Inhibition of thrombin (fibrinogen substrate, fibrin formation at 405 nm). The format is biochemical. As to conditions: for IC50: thrombin 0.7 nM, preincubation 20° C. 10 minutes, fibrinogen, read-out: CI50 Thrombin. The protocol:
In order to evaluate in vitro the inhibiting activity of the boro-Arginic products on human thrombin (Sigma, specific activity 3220 NIHU/mg), purified human fibrinogen ([…], Enzyme Research Laboratories) was added to a given quantity of thrombin (0.7 nM) previously incubated with or without the inhibitor to be tested (20° C., 10 minutes).
(§2) Inhibitors, enzymes and substrates are diluted in the same buffer ([…] phosphate buffer, pH 7.4, containing 0.12M of sodium chloride and 0.05% of bovine albumin serum) and then distributed into a microplate made of polystyrene in a volume of 50 1.
(§3) The fibrin formed by the thrombin or the para-nitroanilide released by the action of the serine protease are measured spectrophotometrically at 405 nm after 5 or 30 minutes' reaction at 20° C. respectively.

Another data set has as its target T2, purified human plasmin (Homo sapiens, UniProt P00747).
T2 construct: purified human plasmin (2 nM, Stago); purchased Stago
Put plainly: Inhibition of plasmin (pNA substrate S 2403). The format is biochemical. As to conditions: enzyme 2 nM, 30 minutes at 20° C.; read-out: CI50 Plasmin. As for the experimental part:
(§4) In order to evaluate in vitro the selectivity of these products in respect of different serine proteases of fibrinolysis and coagulation, the same protocol is applied to purified human plasmin (2 nM, Stago), to purified human activated protein C (2 nM, Stago), to purified human activated factor X (2 nM, Calbiochem), to the tissue activator of plasminogen (2 nM, Calbiochem), to purified human urokinase (2 nM, Choay), to purified human plasma kallikrein (2 nM, Calbiochem), using as substrates different peptide para-nitroanilides: <Glu-Phe-Lys-pNA (0.50mM, S 2403, Kabi) for plasmin, N-Cbo-Arg-Gly-Arg-pNA (0.39 mM, S 2765, Kabi) for the factor Xa<Glu-Pro-Arg-pNA (0.52 mM, S 2366, Kabi) for activated protein C, H-D-Pro-Phe-Arg-pNA (0.45 mM, S 2302, Kabi) for kallikrein, H-(D)-Ile-Pro-Arg-pNA (0.48 mM, S 2288, Kabi) for the tissue activator of plasminogen and <Glu-Gly-Arg-pNA (0.56 mM, S 2444, Kabi) for urokinase.
as §2, §3

Data set [3] addresses T3, tissue activator of plasminogen (Homo sapiens, UniProt P00750).
T3 construct: purchased Calbiochem
The data set can be described thus: Inhibition of tPA (pNA substrate S 2288). The format is biochemical. The settings on record: enzyme 2 nM, 30 minutes at 20° C.; read-out: CI50 tPA. The protocol: as §4, §2, §3

The target of another data set is T4, purified human urokinase (Homo sapiens, UniProt P00749).
T4 construct: purchased Choay
Put plainly: Inhibition of urokinase (pNA substrate S 2444). The format is biochemical. The settings on record: enzyme 2 nM, 30 minutes at 20° C.; read-out: CI50 Urokinase. As for the experimental part: as §4, §2, §3

Data set [4] concerns the target T5, purified human activated factor X (Homo sapiens, UniProt P00742).
T5 construct: purchased Calbiochem
The data set can be described thus: Inhibition of factor Xa (pNA substrate S 2765). As to conditions: enzyme 2 nM, 30 minutes at 20° C.; read-out: CI50 FXa. The format is biochemical. As for the experimental part:
as §4, §2, §3

The target of data set [5] is T6, purified human plasma kallikrein (Homo sapiens, UniProt P03952).
T6 construct: purified human plasma kallikrein (2 nM, Calbiochem); purchased Calbiochem
T6 sequence (P03952 391-638 limits assumed): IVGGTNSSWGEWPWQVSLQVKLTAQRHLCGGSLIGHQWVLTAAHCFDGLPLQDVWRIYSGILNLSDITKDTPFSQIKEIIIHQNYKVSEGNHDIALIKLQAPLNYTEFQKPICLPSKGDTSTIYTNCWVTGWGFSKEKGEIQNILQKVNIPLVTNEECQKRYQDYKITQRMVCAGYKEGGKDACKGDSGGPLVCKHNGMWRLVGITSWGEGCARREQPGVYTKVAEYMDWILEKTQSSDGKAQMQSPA
T6 sequence (P03952 20-390 partner limits assumed): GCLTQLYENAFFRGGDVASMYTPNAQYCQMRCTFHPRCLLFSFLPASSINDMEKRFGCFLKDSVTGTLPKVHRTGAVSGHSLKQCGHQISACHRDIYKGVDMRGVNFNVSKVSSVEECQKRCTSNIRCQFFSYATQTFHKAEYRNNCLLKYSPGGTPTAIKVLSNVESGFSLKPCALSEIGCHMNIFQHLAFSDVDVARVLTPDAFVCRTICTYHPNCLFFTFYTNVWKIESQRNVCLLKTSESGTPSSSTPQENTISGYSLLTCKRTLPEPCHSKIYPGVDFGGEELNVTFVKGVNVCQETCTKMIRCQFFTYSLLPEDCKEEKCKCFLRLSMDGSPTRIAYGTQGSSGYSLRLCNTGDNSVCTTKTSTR
Put plainly: Inhibition of plasma kallikrein (pNA substrate S 2302). As to conditions: enzyme 2 nM, 30 minutes at 20° C.; read-out: CI50 Kalli. The format is biochemical. As for the experimental part: as §4, §2, §3

For data set [6], the target named is T7, purified human activated protein C (Homo sapiens, UniProt P04070).
T7 construct: purchased Stago
T7 sequence (P04070 212-450 limits assumed): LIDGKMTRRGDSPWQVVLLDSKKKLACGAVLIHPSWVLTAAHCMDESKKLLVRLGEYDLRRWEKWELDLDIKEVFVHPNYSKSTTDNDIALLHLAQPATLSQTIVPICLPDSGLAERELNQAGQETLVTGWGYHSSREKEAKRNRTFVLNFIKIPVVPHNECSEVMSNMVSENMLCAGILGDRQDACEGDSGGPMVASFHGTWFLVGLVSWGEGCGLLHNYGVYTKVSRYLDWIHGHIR
T7 sequence (P04070 43-197 partner limits assumed): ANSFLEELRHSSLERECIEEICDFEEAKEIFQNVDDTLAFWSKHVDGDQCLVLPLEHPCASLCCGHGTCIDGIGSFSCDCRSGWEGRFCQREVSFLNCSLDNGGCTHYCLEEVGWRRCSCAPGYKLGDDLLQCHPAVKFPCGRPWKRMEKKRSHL
The data set can be described thus: Inhibition of activated protein C (pNA substrate S 2366). The format is biochemical. As to conditions: enzyme 2 nM, 30 minutes at 20° C.; read-out: CI50 PCa. As for the experimental part:
as §4, §2, §3

For data set [7], the system named is activated cephalin time (ACT). The data set can be described thus: Anticoagulant activity ex vivo, i.v. route in the dog (ACT). As to conditions: for ACT increase index: 0.5 mg/kg i.v. From the text:
The dogs are left breathing freely.

In data set [8] the test system is platelets. The data set can be described thus: Number of platelets after i.v. administration in the dog. As to conditions: 0.25 mg/kg i.v.
Description: Fasted dogs are anaesthetized with pentobarbital (30 mg/kg, i.v.). A femoral artery and a saphenous vein are exposed and catheterized. The dogs are left breathing freely.
The subject of data set [9] is activated cephalin time (ACT). The data set can be described thus: Anticoagulant activity ex vivo, i.v. route in the rat (ACT). The settings on record: 0.25 mg/kg i.v. The protocol:
OFA rats, fasted or not, are anaesthetized with pentobarbital (60 mg/kg, i.p.). The carotid artery and the jugular vein are exposed and catheterized. The catheters are purged with citrated physiological saline (1/40). After installation of the catheters a sampling of 1.5 cm^3 of arterial blood is performed on 0.109 M citrate (1/9).
30 minutes later the product to be tested is administered i.v. in a volume of 1 ml.
Arterial samplings (1.5 ml) are then performed at 1 minute 30, 5, 15, 30 and 60 minutes.
At each sampling 1.5 ml of citrated physiological saline is reinjected into the animal via the carotid.
The tubes of blood are centrifuged for 5 minutes at 3000 g (preparation of the plasma).
100 1 of plasma are incubated with 100 1 of activated cephalin. The time of appearance of the coagulation phenomenon is measured after addition of 100 1 of calcium.
The results are reproduced in the following table and show the indices of increase in the coagulation time.

A further data set concerns thrombin time. Put plainly: Anticoagulant activity ex vivo, oral route in the dog (thrombin time). As to conditions: 2.5 mg/kg oral. As for the experimental part: (§5) After a blood sample has been taken, the products are administered orally. At specified times after the treatment the blood is sampled intravenously. The plasma is prepared, the platelets are counted and the thrombin time test is carried out.
(§6) The activity is durable (4 hours).

Data set [10] deals with platelets. Put plainly: Number of platelets after oral administration in the dog. The format is in vivo. As to conditions: 2.5 mg/kg oral. The protocol:
as §5, §6

T3 sequence (P00750 23-562 limits assumed): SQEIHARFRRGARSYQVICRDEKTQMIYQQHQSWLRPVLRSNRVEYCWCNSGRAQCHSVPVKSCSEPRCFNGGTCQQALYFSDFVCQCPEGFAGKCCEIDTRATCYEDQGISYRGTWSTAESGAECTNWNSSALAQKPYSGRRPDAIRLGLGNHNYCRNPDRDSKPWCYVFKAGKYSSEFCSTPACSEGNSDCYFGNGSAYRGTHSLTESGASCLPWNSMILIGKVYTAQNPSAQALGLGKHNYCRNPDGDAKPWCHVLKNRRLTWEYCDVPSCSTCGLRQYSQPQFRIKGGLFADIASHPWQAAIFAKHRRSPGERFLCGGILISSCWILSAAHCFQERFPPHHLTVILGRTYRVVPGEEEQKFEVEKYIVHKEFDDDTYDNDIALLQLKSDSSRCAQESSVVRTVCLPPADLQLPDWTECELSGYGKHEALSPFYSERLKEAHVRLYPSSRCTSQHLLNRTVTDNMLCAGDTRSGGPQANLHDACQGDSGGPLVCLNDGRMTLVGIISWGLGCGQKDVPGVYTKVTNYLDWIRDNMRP
T5 sequence (P00742 235-488 limits assumed): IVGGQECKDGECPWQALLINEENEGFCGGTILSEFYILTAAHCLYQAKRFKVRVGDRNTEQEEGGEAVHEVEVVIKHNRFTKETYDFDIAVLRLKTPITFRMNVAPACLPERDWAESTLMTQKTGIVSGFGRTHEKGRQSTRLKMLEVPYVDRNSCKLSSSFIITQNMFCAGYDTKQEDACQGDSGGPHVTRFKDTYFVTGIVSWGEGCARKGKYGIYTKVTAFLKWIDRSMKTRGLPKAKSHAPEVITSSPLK
T5 sequence (P00742 41-179 partner limits assumed): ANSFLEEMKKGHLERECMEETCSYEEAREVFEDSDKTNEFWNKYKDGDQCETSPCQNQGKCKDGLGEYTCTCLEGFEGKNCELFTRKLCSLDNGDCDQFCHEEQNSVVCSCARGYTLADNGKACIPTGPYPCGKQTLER
T2 sequence (P00747 581-810 limits assumed): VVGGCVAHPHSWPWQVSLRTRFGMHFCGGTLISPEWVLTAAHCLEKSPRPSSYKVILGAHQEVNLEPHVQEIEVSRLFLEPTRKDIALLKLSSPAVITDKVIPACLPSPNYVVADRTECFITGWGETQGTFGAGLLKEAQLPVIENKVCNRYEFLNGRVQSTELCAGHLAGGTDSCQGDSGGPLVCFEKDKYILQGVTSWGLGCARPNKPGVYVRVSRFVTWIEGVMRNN
T2 sequence (P00747 97-580 partner limits assumed): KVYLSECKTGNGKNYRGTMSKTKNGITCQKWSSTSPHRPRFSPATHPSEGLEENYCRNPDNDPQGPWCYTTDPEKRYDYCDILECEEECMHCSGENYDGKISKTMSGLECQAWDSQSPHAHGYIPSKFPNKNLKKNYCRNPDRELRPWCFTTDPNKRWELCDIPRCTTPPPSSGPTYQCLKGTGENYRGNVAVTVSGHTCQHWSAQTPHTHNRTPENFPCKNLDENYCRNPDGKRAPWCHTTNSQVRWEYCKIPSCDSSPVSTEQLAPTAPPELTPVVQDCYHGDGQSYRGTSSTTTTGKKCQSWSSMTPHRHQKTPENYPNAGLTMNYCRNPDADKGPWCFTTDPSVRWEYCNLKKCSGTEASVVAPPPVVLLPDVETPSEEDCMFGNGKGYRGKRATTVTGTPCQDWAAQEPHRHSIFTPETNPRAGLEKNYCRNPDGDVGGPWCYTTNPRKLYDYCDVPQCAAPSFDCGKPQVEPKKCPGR

Regarding `CC(=O)N[C@H](Cc1ccccc1)C(=O)N(CC(=O)N[C@@H](CCCSC(=N)N)B(O)O)C1CCCCC1.CC(=O)O` [Example 6, 1-(R)-{[Ac-(R)Phe-(N-cyclohexyl)Gly]amino}-4-(isothioureido)butylboronic Acid Acetate], the “CTT2 (concentration which doubles the thrombin time)” value (“CTT2” below) in data set [1] was determined as 0.29 µM. The “CTP2 (concentration which doubles the prothrombin time)” value (from here on “CTP2”) in [2] amounted to 2.92 µM. For the same compound, the “selectivity for thrombin versus other serine proteases, compared with DUP 714” value (shortened to “selectivity”) on human thrombin (comparison of CI50 values) is on record as “much more selective inhibitors of thrombin than DUP 714”. For the same compound, the IC50 at human thrombin was 1.75 nM; at purified human plasmin, 1260 nM; in data set [3], 92 nM; on purified human urokinase it was 1510 nM; in data set [4] it was 10800 nM; in data set [5] it was 181 nM. In addition, in data set [6], the IC50 turned out to be 467 nM.
Consider “1-(R)-{[Ac-(R)Phe-(N-cyclopentyl)Gly]amino}-4-(1N-methylguanidino)butylboronic Acid Acetate [Example 8]”, for which, in [1], the “CTT2” value is 0.30 µM. Moreover, the “CTP2” value in data set [2] was 3.06 µM. The “selectivity” value on human thrombin (comparison of CI50 values) was “much more selective inhibitors of thrombin than DUP 714”. For the same compound, the IC50 was 0.74 nM on human thrombin; greater than 33000 nM on purified human plasmin; 395 nM in data set [3]; greater than 33000 nM on purified human urokinase; greater than 330000 nM in [4]; 1080 nM in [5]. Further, in data set [6], the IC50 came to 458 nM.
Turning to `CC(=O)N[C@H](Cc1ccccc1)C(=O)N1CCC[C@H]1C(=O)N[C@@H](CCCN=C(N)N)B(O)O` [DUP 714, Ac-(D)Phe-Pro-Arg-boronic acid, reference compound], the “CTT2” value in data set [1] worked out at 0.18 µM. Further, the “CTP2” value in data set [2] was determined as 2.63 µM. In addition, the IC50 at purified human plasmin was 24 nM; in [3], 5.3 nM; on purified human urokinase, 22 nM; in data set [4], 81 nM; in [5] it was 6.8 nM; in [6], 15 nM. Moreover, the “increase in the ACT” value in data set [7] (0.25 mg/kg i.v.) is recorded as “comparable with that obtained with Example 2 in a dosage of 0.5 mg/kg”. This compound displayed a thrombopenia in the data set on platelets [8] of 20%.
Regarding `CC(=O)NC(Cc1ccccc1)C(=O)N(CC(=O)N[C@@H](CCCSC(=N)N)B(O)O)C1CCCCC1.CC(=O)O` (stereo partly drawn) [Example 4, 1-(R)-{[Ac-(R,S)Phe-(N-cyclohexyl)Gly]amino}-4-(isothioureido) butylboronic Acid Acetate], the “CTT2” value in [1] stood at 0.34 µM. Also, the “CTP2” value in [2] was 2.44 µM.
For `CC(=O)N[C@H](Cc1ccccc1)C(=O)N(CC(=O)N[C@@H](CCCSC(=N)N)B(O)O)C1CCCC1.CC(=O)O` [Example 2, 1-(R )-{[Ac-(R)Phe-(N-cyclopentyl)Gly]amino}-4-(isothioureido)butylboronic Acid Acetate], in [1], the “CTT2” value amounted to 0.20 µM. Moreover, the “CTP2” value in data set [2] is 2.29 µM. The “selectivity” value on human thrombin (comparison of CI50 values) is on record as “much more selective inhibitors of thrombin than DUP 714”. Besides, the “thrombin inhibition compared with DUP 714” value on human thrombin (comparison of CI50 values) is on record as “as powerfully as DUP 7 14”. The IC50 on human thrombin was 0.59 nM; on purified human plasmin, 1040 nM; in data set [3], 108 nM; at purified human urokinase, 2500 nM; in [4] it was greater than 100000 nM; in [5], 164 nM. In addition, the IC50 in [6] turned out to be 593 nM. The “index of increase in the coagulation time (ACT)” value came to 2.6 in [9] (1.5 minutes); 1.8 in [9] (5 minutes); 1.2 in [9] (15 minutes); 1.2 in data set [9] (30 minutes); 1.1 in data set [9] (60 minutes). For the same compound, the ACT increase index in data set [7] (1.5 minutes) was determined as 9.6; in [7] (5 minutes) it was 3.6; in data set [7] (15 minutes) it was 1.9; in data set [7] (30 minutes) it was 1.4; in data set [7] (60 minutes), 1.1. Besides, the “duration of activity (TT increase)” value with thrombin time was 4 h. The “increase in the TT” value with thrombin time (0.5 hours) worked out at 1.1; in the data set with thrombin time (1 hour), 1.6; with thrombin time (2 hours), 1.5; in the data set on thrombin time (4 hours), 1.1. Also, in the data set on platelets [10], the “modification of the number of platelets” value is given as “without modification of the number of platelets”.
